Laboratory results taken from ChEMBL document CHEMBL1201862, “PubChem BioAssay data set” (2004).
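Assay format: 96-well plates, 48-hour exposure. GI50 is the concentration that inhibits growth by half.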 Active and inactive are the calls of the source. Cut-off read from the data, not from the text of the source: active = GI50 up to about 1.1 µM and inactive = higher.

Columns and labels:
Test in all cases: growth of human tumour cells (NCI), 48 h
[1] = test system: 786-0
[2] = test system: A498
[3] = test system: A549
[4] = test system: CCRF-CEM
[5] = test system: COLO 205
[6] = test system: DLD-1
[7] = test system: DMS-114
[8] = test system: DMS-273
[9] = test system: EKVX
[10] = test system: HCC 2998
[11] = test system: HCT-116
[12] = test system: HCT-15
[13] = test system: HL-60
[14] = test system: HOP-18
[15] = test system: HOP-62
[16] = test system: HOP-92
[17] = test system: HT-29
[18] = test system: IGROV-1
[19] = test system: K562
[20] = test system: KM12
[21] = test system: LOX IMVI
[22] = test system: LXFL 529
[23] = test system: M14
[24] = test system: M19-MEL
[25] = test system: MOLT-4
[26] = test system: Malme-3M
[27] = test system: NCI-H226
[28] = test system: NCI-H23
[29] = test system: NCI-H460
[30] = test system: OVCAR-3
[31] = test system: OVCAR-4
[32] = test system: OVCAR-5
[33] = test system: OVCAR-8
[34] = test system: RPMI-8226
[35] = test system: RXF 393
[36] = test system: SF-268
[37] = test system: SF-295
[38] = test system: SF-539
[39] = test system: SK-MEL-28
[40] = test system: SK-MEL-5
[41] = test system: SK-OV-3
[42] = test system: SN12C
[43] = test system: SNB-19
[44] = test system: SNB-75
[45] = test system: SNB-78
[46] = test system: SR
[47] = test system: SW-620
[48] = test system: TK-10
[49] = test system: U-251
[50] = test system: UACC-257
[51] = test system: UACC-62
[52] = test system: UO-31
[53] = test system: XF498
[54] = test system: ACHN
[55] = test system: KM-20L2
[56] = test system: NCI-H522
[57] = test system: SK-MEL-2

O=C(Nc1ccccc1)Oc1ccccc1C1CCCCC1
GI50 [1]: 17.2 µM (inactive)
GI50 [2]: 30.6 µM (inactive)
GI50 [3]: 20.9 µM (inactive)
GI50 [4]: 19.5 µM (inactive)
GI50 [5]: 15.8 µM (inactive)
GI50 [6]: 13.9 µM (inactive)
GI50 [7]: 12 µM (inactive)
GI50 [8]: 15.2 µM (inactive)
GI50 [9]: 20.1 µM (inactive)
GI50 [10]: 25.9 µM (inactive)
GI50 [11]: 21.9 µM (inactive)
GI50 [12]: 16.6 µM
GI50 [13]: 9.71 µM (inactive)
GI50 [14]: 29.3 µM (inactive)
GI50 [15]: 18.1 µM (inactive)
GI50 [16]: 10.4 µM (inactive)
GI50 [17]: 20.4 µM (inactive)
GI50 [18]: 24.8 µM (inactive)
GI50 [19]: 17.9 µM (inactive)
GI50 [20]: 26.8 µM (inactive)
GI50 [21]: 13.8 µM (inactive)
GI50 [22]: 22.5 µM (inactive)
GI50 [23]: 23.6 µM (inactive)
GI50 [24]: 16 µM (inactive)
GI50 [25]: 14.9 µM (inactive)
GI50 [26]: 21.1 µM (inactive)
GI50 [27]: 13.2 µM (inactive)
GI50 [28]: 14.4 µM (inactive)
GI50 [29]: 20 µM (inactive)
GI50 [30]: 12.7 µM (inactive)
GI50 [31]: 14.6 µM (inactive)
GI50 [32]: 11.8 µM (inactive)
GI50 [33]: 29.6 µM (inactive)
GI50 [34]: 19 µM (inactive)
GI50 [35]: 2.96 µM (inactive)
GI50 [36]: 36.3 µM (inactive)
GI50 [37]: 17.3 µM (inactive)
GI50 [38]: 25.8 µM (inactive)
GI50 [39]: 29.6 µM (inactive)
GI50 [40]: 13.5 µM (inactive)
GI50 [41]: 44.5 µM (inactive)
GI50 [42]: 18.9 µM (inactive)
GI50 [43]: 63.1 µM (inactive)
GI50 [44]: 6.38 µM (inactive)
GI50 [45]: 17.7 µM (inactive)
GI50 [46]: 14.8 µM (inactive)
GI50 [47]: 25.5 µM (inactive)
GI50 [48]: 28.8 µM (inactive)
GI50 [49]: 12 µM (inactive)
GI50 [50]: 16.9 µM (inactive)
GI50 [51]: 25.5 µM (inactive)
GI50 [52]: 13.1 µM (inactive)
GI50 [53]: 19 µM (inactive)

CCOC(=O)CCC1(C(=O)OCC)CCCCC1=O (stereo not given)
GI50 [1]: > 100 µM (inactive)
GI50 [2]: > 100 µM (inactive)
GI50 [3]: > 100 µM (inactive)
GI50 [54]: > 100 µM (inactive)
GI50 [4]: > 100 µM (inactive)
GI50 [5]: > 100 µM (inactive)
GI50 [6]: > 100 µM (inactive)
GI50 [7]: > 100 µM (inactive)
GI50 [8]: > 100 µM (inactive)
GI50 [9]: > 100 µM (inactive)
GI50 [10]: > 100 µM (inactive)
GI50 [11]: > 100 µM (inactive)
GI50 [13]: > 100 µM (inactive)
GI50 [14]: 81.8 µM (inactive)
GI50 [15]: > 100 µM (inactive)
GI50 [16]: > 100 µM (inactive)
GI50 [17]: > 100 µM (inactive)
GI50 [18]: > 100 µM (inactive)
GI50 [19]: > 100 µM (inactive)
GI50 [55]: > 100 µM (inactive)
GI50 [20]: > 100 µM (inactive)
GI50 [21]: > 100 µM (inactive)
GI50 [22]: > 100 µM (inactive)
GI50 [24]: > 100 µM (inactive)
GI50 [25]: > 100 µM (inactive)
GI50 [26]: > 100 µM (inactive)
GI50 [28]: > 100 µM (inactive)
GI50 [29]: > 100 µM (inactive)
GI50 [56]: > 100 µM (inactive)
GI50 [30]: > 100 µM (inactive)
GI50 [32]: > 100 µM (inactive)
GI50 [33]: > 100 µM (inactive)
GI50 [34]: > 100 µM (inactive)
GI50 [35]: > 100 µM (inactive)
GI50 [36]: > 100 µM (inactive)
GI50 [37]: > 100 µM (inactive)
GI50 [38]: > 100 µM (inactive)
GI50 [39]: > 100 µM (inactive)
GI50 [57]: > 100 µM (inactive)
GI50 [40]: > 100 µM (inactive)
GI50 [41]: > 100 µM (inactive)
GI50 [43]: > 100 µM (inactive)
GI50 [44]: > 100 µM (inactive)
GI50 [45]: > 100 µM (inactive)
GI50 [47]: > 100 µM (inactive)
GI50 [48]: > 100 µM (inactive)
GI50 [49]: > 100 µM (inactive)
GI50 [50]: > 100 µM (inactive)
GI50 [52]: > 100 µM (inactive)
GI50 [53]: > 100 µM (inactive)

COc1ccc(/C(C#N)=C(/N)SCc2ccccc2Cl)cc1
GI50 [1]: 16.1 µM (inactive)
GI50 [2]: 18.9 µM (inactive)
GI50 [3]: 26.4 µM (inactive)
GI50 [54]: > 10 µM (inactive)
GI50 [4]: 27.9 µM (inactive)
GI50 [5]: 20.3 µM (inactive)
GI50 [6]: 14.1 µM (inactive)
GI50 [7]: 17.7 µM (inactive)
GI50 [9]: 21.2 µM (inactive)
GI50 [10]: 17 µM (inactive)
GI50 [11]: 18.8 µM (inactive)
GI50 [13]: 14.3 µM (inactive)
GI50 [14]: 19.5 µM (inactive)
GI50 [15]: 14.8 µM (inactive)
GI50 [16]: 17.8 µM (inactive)
GI50 [17]: 17.5 µM (inactive)
GI50 [18]: 29.2 µM (inactive)
GI50 [19]: 18.5 µM (inactive)
GI50 [55]: 17.8 µM (inactive)
GI50 [20]: > 10 µM (inactive)
GI50 [21]: 15.2 µM (inactive)
GI50 [22]: 14.4 µM (inactive)
GI50 [23]: 14.2 µM (inactive)
GI50 [24]: 16.6 µM (inactive)
GI50 [25]: 19.1 µM (inactive)
GI50 [26]: 17.5 µM (inactive)
GI50 [27]: 16.4 µM (inactive)
GI50 [28]: 16.8 µM (inactive)
GI50 [56]: 14 µM (inactive)
GI50 [30]: 11.1 µM (inactive)
GI50 [32]: 18.2 µM (inactive)
GI50 [33]: > 10 µM (inactive)
GI50 [34]: 22.8 µM (inactive)
GI50 [35]: 16.6 µM (inactive)
GI50 [36]: 16.4 µM (inactive)
GI50 [37]: 17.1 µM (inactive)
GI50 [38]: 17.4 µM (inactive)
GI50 [39]: 17.9 µM (inactive)
GI50 [57]: 16.5 µM (inactive)
GI50 [41]: 27.8 µM (inactive)
GI50 [42]: 24.7 µM (inactive)
GI50 [43]: > 10 µM (inactive)
GI50 [44]: 23.2 µM (inactive)
GI50 [45]: 27 µM (inactive)
GI50 [46]: 25.2 µM (inactive)
GI50 [47]: 16.1 µM (inactive)
GI50 [48]: 32.1 µM (inactive)
GI50 [49]: 18.1 µM (inactive)
GI50 [50]: 16.7 µM (inactive)
GI50 [51]: 11.9 µM (inactive)
GI50 [52]: > 10 µM (inactive)
GI50 [53]: 14.8 µM (inactive)
